Measurements as given in BindingDB's records for doi:10.7270/Q2MC8XP5 (Burnham Center For Chemical Genomics, 2013).

Biological target: Protein artemis (Homo sapiens, UniProt Q96SD1)
Assay: Artemis endonuclease inhibitor potency, dose response, biochemical, fluorescence intensity (AID 720701)

Chain of Protein artemis (Q96SD1 whole entry): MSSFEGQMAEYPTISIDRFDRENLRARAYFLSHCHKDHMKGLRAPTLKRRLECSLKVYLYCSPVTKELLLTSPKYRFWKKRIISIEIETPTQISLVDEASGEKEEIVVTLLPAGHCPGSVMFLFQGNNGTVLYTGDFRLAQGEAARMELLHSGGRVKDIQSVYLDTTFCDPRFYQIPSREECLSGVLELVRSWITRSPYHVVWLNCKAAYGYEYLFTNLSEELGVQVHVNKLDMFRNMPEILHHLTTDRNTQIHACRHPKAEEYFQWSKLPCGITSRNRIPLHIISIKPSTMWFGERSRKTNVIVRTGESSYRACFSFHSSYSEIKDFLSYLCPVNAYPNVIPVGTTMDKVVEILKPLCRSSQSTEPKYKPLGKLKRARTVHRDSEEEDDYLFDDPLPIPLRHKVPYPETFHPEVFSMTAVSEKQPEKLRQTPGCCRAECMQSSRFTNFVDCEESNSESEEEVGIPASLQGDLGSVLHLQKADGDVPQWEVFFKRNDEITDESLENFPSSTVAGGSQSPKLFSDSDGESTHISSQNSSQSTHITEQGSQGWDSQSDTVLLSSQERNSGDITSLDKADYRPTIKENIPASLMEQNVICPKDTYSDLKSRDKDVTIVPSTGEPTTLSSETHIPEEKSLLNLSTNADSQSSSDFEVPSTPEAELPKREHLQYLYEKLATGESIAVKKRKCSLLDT

| SMILES | IC50 [µM] |
| --- | --- |
| COc1ccc(Nc2nc(N=NCc3ccccc3)nc(NCc3ccco3)n2)cc1 | 2.65 |
| Cc1cccc(CN2C(=O)N/C(=C/c3ccc(C)s3)C2=O)c1 | 16.4 |
| CN1c2cccc3cccc(c23)C1N=O (stereo unspecified) [1-Methyl-1H-benzo[cd]indol-2-one oxime] | > 20 |
| CCCCCCCCCC(N=O)c1ccccn1 (stereo unspecified) [1-Pyridin-2-yl-decan-1-one oxime] | 11 |
| CCCCOc1ccc(/C=C2/Sc3ccccc3C2=O)cc1 [2-(4-Butoxy-benzylidene)-benzo[b]thiophen-3-one] | > 20 |
| N#CC(C(=O)NCc1ccccc1)c1nc2ccccc2nc1N1CCCC1 (stereo unspecified) [2-cyano-N-(phenylmethyl)-2-(3-pyrrolidin-1-ylquinoxalin-2-yl)ethanamide] | 5 |
| CCCCc1ccc(/C=C2\C(=O)ON=C2c2ccccc2)s1 [4-(5-Butyl-thiophen-2-ylmethylene)-3-phenyl-4H-isoxazol-5-one] | 16.2 |
| N#CC1C(=N)Oc2[nH]nc(-c3cccs3)c2C1c1ccoc1 (stereo unspecified) [6-amino-4-(furan-3-yl)-3-thiophen-2-yl-2,4-dihydropyrano[2,3-c]pyrazole-5-carbonitrile] | > 20 |
| C=CCN1C(=O)S/C(=C\c2ccc(N3CCOCC3)cc2C)C1=O [(5Z)-5-[[2-methyl-4-(4-morpholinyl)phenyl]methylidene]-3-prop-2-enylthiazolidine-2,4-dione] | 1.5 |
| COc1ccc(O)c(CN=Nc2nc(Nc3ccccc3)nc(-n3nc(C)cc3C)n2)c1 [(6E)-6-[[2-[4-(3,5-dimethylpyrazol-1-yl)-6-phenylazanyl-1,3,5-triazin-2-yl]hydrazinyl]methylidene]-4-methoxy-cyclohexa-2,4-dien-1-one] | 2.23 |
| O=C1C=Cc2ccccc2/C1=C/NC12CN3CCN(CN(C3)C1)C2 [MLS000071484] | 3.64 |
| NS(=O)(=O)c1ccc2c(c1)C1C=CCC1C(C1CC=CCC1)N2 (stereo unspecified) [MLS000530517] | 9.58 |
| CCN(CC)c1ccc(CN=Nc2nc3ccccc3[nH]2)c(O)c1 [MLS000541069] | 15.5 |
| CC(N=O)c1ccccc1C(=O)O (stereo unspecified) [SMR000038583] | 3.62 |
| CCOc1ccc(-n2c(O)c(C=Nc3ccc(N4CCOCC4)cc3)c(=O)[nH]c2=O)cc1 [SMR000109118] | > 20 |
| O=c1c2ccccc2nc(N=NCc2c(O)ccc3ccccc23)n1O [SMR000145705] | 4.68 |
